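All cell lines were grown in 96-well plates and treated with compound for 48 hours. GI50 marks 50% less growth.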 The source made the active and inactive calls. Cut-off read from the data, not from the text of the source: active = GI50 up to about 1.1 µM and inactive = higher.
How the values were obtained:
Assay in all cases: NCI-60 cell line screen, 48 h
SN12C = test system: SN12C
COLO 205 = test system: COLO 205
786-0 = test system: 786-0
SNB-75 = test system: SNB-75
HOP-62 = test system: HOP-62
HCT-116 = test system: HCT-116
SK-MEL-2 = test system: SK-MEL-2
ACHN = test system: ACHN
HOP-18 = test system: HOP-18
A549 = test system: A549
DLD-1 = test system: DLD-1
SF-268 = test system: SF-268
LXFL 529 = test system: LXFL 529
TK-10 = test system: TK-10
UACC-62 = test system: UACC-62
NCI-H522 = test system: NCI-H522
KM12 = test system: KM12
DMS-273 = test system: DMS-273
DMS-114 = test system: DMS-114
HCT-15 = test system: HCT-15
SR = test system: SR
UACC-257 = test system: UACC-257
HCC 2998 = test system: HCC 2998
RXF 393 = test system: RXF 393
SNB-19 = test system: SNB-19
HL-60 = test system: HL-60
OVCAR-4 = test system: OVCAR-4
CAKI-1 = test system: CAKI-1
RPMI-8226 = test system: RPMI-8226
KM-20L2 = test system: KM-20L2
OVCAR-8 = test system: OVCAR-8
A498 = test system: A498
M14 = test system: M14
SW-620 = test system: SW-620
NCI-H460 = test system: NCI-H460
UO-31 = test system: UO-31
SNB-78 = test system: SNB-78
K562 = test system: K562
SF-539 = test system: SF-539
CCRF-CEM = test system: CCRF-CEM
MOLT-4 = test system: MOLT-4
M19-MEL = test system: M19-MEL
U-251 = test system: U-251
SK-MEL-5 = test system: SK-MEL-5
OVCAR-3 = test system: OVCAR-3
IGROV-1 = test system: IGROV-1
NCI-H226 = test system: NCI-H226
SK-OV-3 = test system: SK-OV-3
Malme-3M = test system: Malme-3M
SK-MEL-28 = test system: SK-MEL-28
XF498 = test system: XF498
HOP-92 = test system: HOP-92
HT-29 = test system: HT-29
NCI-H23 = test system: NCI-H23

SMILES: CCCNC(=O)C(C)(Cl)C(=O)c1ccccc1O (stereo unspecified)
- GI50 (SN12C): > 100 µM (inactive)
- GI50 (COLO 205): > 100 µM (inactive)
- GI50 (786-0): > 100 µM (inactive)
- GI50 (SNB-75): > 100 µM (inactive)
- GI50 (HOP-62): > 100 µM (inactive)
- GI50 (HCT-116): > 100 µM (inactive)
- GI50 (SK-MEL-2): > 100 µM (inactive)
- GI50 (ACHN): > 100 µM (inactive)
- GI50 (HOP-18): > 100 µM (inactive)
- GI50 (A549): > 100 µM (inactive)
- GI50 (DLD-1): > 100 µM (inactive)
- GI50 (SF-268): > 100 µM (inactive)
- GI50 (LXFL 529): > 100 µM (inactive)
- GI50 (TK-10): > 100 µM (inactive)
- GI50 (UACC-62): > 100 µM (inactive)
- GI50 (NCI-H522): > 100 µM (inactive)
- GI50 (KM12): > 100 µM (inactive)
- GI50 (DMS-273): > 100 µM (inactive)
- GI50 (DMS-114): > 100 µM (inactive)
- GI50 (HCT-15): > 100 µM
- GI50 (SR): > 100 µM (inactive)
- GI50 (UACC-257): > 100 µM (inactive)
- GI50 (HCC 2998): > 100 µM (inactive)
- GI50 (RXF 393): > 100 µM (inactive)
- GI50 (SNB-19): > 100 µM (inactive)
- GI50 (HL-60): > 100 µM (inactive)
- GI50 (OVCAR-4): > 100 µM (inactive)
- GI50 (CAKI-1): > 100 µM (inactive)
- GI50 (RPMI-8226): > 100 µM (inactive)
- GI50 (KM-20L2): > 100 µM (inactive)
- GI50 (OVCAR-8): > 100 µM (inactive)
- GI50 (A498): > 100 µM (inactive)
- GI50 (M14): > 100 µM (inactive)
- GI50 (SW-620): > 100 µM (inactive)
- GI50 (NCI-H460): > 100 µM (inactive)
- GI50 (UO-31): > 100 µM (inactive)
- GI50 (SNB-78): > 100 µM (inactive)
- GI50 (K562): > 100 µM (inactive)
- GI50 (SF-539): > 100 µM (inactive)
- GI50 (CCRF-CEM): > 100 µM (inactive)
- GI50 (MOLT-4): > 100 µM (inactive)
- GI50 (M19-MEL): > 100 µM (inactive)
- GI50 (U-251): > 100 µM (inactive)
- GI50 (SK-MEL-5): > 100 µM (inactive)
- GI50 (OVCAR-3): > 100 µM (inactive)
- GI50 (IGROV-1): > 100 µM (inactive)
- GI50 (NCI-H226): > 100 µM (inactive)
- GI50 (SK-OV-3): > 100 µM (inactive)
- GI50 (Malme-3M): > 100 µM (inactive)
- GI50 (SK-MEL-28): > 100 µM (inactive)

SMILES: COc1cc(C2c3cc4c(cc3[C@@H](NCCN(C)C)C3COC(=O)[C@H]23)OCO4)cc(OC)c1O (stereo partly specified)
- GI50 (XF498): 0.12 µM (active)
- GI50 (DLD-1): 1.06 µM (active)
- GI50 (LXFL 529): 1.43 µM (inactive)
- GI50 (HOP-92): 0.0232 µM (active)
- GI50 (TK-10): 0.853 µM (active)
- GI50 (KM12): 0.475 µM (active)
- GI50 (HCT-15): 0.147 µM
- GI50 (SNB-19): 0.338 µM (active)
- GI50 (OVCAR-4): 1.98 µM (inactive)
- GI50 (RPMI-8226): 0.455 µM (active)
- GI50 (HT-29): 0.536 µM (active)
- GI50 (M14): 0.229 µM (active)
- GI50 (SW-620): 0.153 µM (active)
- GI50 (UO-31): 0.149 µM (active)
- GI50 (K562): 0.253 µM (active)
- GI50 (SF-539): 0.0375 µM (active)
- GI50 (M19-MEL): 0.575 µM (active)
- GI50 (U-251): 0.0359 µM (active)
- GI50 (SK-MEL-5): 0.0869 µM (active)
- GI50 (OVCAR-3): 1.05 µM (active)
- GI50 (Malme-3M): 0.21 µM (active)
- GI50 (SK-MEL-28): 0.284 µM (active)

SMILES: Cc1c2cc(Cl)ccc2n2c(=O)c3ccccc3[nH]c(=O)c12
- GI50 (COLO 205): > 100 µM (inactive)
- GI50 (786-0): 41.5 µM (inactive)
- GI50 (SNB-75): 59.6 µM (inactive)
- GI50 (HOP-62): 31.2 µM (inactive)
- GI50 (HCT-116): 69.2 µM (inactive)
- GI50 (SK-MEL-2): > 100 µM (inactive)
- GI50 (DLD-1): > 100 µM (inactive)
- GI50 (SF-268): > 100 µM (inactive)
- GI50 (LXFL 529): > 100 µM (inactive)
- GI50 (HOP-92): > 100 µM (inactive)
- GI50 (UACC-62): > 100 µM (inactive)
- GI50 (NCI-H522): > 100 µM (inactive)
- GI50 (DMS-273): > 100 µM (inactive)
- GI50 (DMS-114): > 100 µM (inactive)
- GI50 (SR): 45.3 µM (inactive)
- GI50 (HCC 2998): > 100 µM (inactive)
- GI50 (HL-60): > 10 µM (inactive)
- GI50 (OVCAR-4): 49.8 µM (inactive)
- GI50 (CAKI-1): > 100 µM (inactive)
- GI50 (RPMI-8226): > 100 µM (inactive)
- GI50 (M14): > 100 µM (inactive)
- GI50 (NCI-H23): > 100 µM (inactive)
- GI50 (UO-31): > 100 µM (inactive)
- GI50 (SNB-78): > 100 µM (inactive)
- GI50 (K562): 50.1 µM (inactive)
- GI50 (SF-539): 78.2 µM (inactive)
- GI50 (CCRF-CEM): 36.1 µM (inactive)
- GI50 (MOLT-4): 42.9 µM (inactive)
- GI50 (M19-MEL): > 100 µM (inactive)
- GI50 (IGROV-1): > 100 µM (inactive)
- GI50 (NCI-H226): > 100 µM (inactive)
- GI50 (SK-OV-3): > 100 µM (inactive)
- GI50 (Malme-3M): > 100 µM (inactive)
- GI50 (SK-MEL-28): > 100 µM (inactive)

Reference: ChEMBL document CHEMBL1201862, “PubChem BioAssay data set” (2004)
